# From PMC7144022, “Quinolinecarboxamides Inhibit the Replication of the Bovine Viral Diarrhea Virus by Targeting a Hot Spot for the Inhibition of Pestivirus Replication in the RNA-Dependent RNA Polymerase” (Molecules, 2020)
# Tests used:
# BVDV NADL virus = assay: CPE-based antiviral assay, BVDV NADL in MDBK cells (MTS/PMS); conditions: for EC50: Bovine viral diarrhea virus isolates and strains, MDBK, 72 h; for S.I.: selectivity index, CC50 vs EC50
# [1] = Cytotoxicity assay, proliferation of exponentially growing MDBK cells (MTS/PMS); assay type: cell-based, bovine; conditions: bovine
# Experimental: Assays were carried out, as described previously.
# [2] = sheet CSFCII#, potency relative to TO502-2403 (EC50 0.2 µM)
# [3] = sheet CSFCI#, potency relative to TO505-6180 (EC50 0.07 µM)
Compound,EC50 (BVDV NADL virus),S.I. (BVDV NADL virus),fold increase (BVDV NADL virus; [2]),CC50 at 5 days [1],fold increase (BVDV NADL virus; [3])
"Cc1sc(NC(=O)c2cc(-c3ccccc3)nc3ccccc23)nc1-c1ccccc1 [CSFC-110, O=C(Nc2nc(c1ccccc1)c(C)s2)c4cc(nc3ccccc34)c5ccccc5]",0.3 µM,333,0.67,> 100 µM,–
"Cc1ccc2nc(NC(=O)c3ccccc3)sc2c1 [CSFC-29, Cc1ccc2nc(NC(=O)c3ccccc3)sc2c1]",> 100 µM,1,–,> 100 µM,0.0007
"Cc1cc(NC(=O)c2cc(-c3ccco3)nc3ccccc23)on1 [CSFC-42, O=C(Nc1cc(C)no1)c3cc(nc2ccccc23)c4ccco4]",17.5 µM,6,0.0114,> 100 µM,–
"O=C(Nc1ccn(-c2cccc(F)c2)n1)c1cc(-c2cccnc2)nc2ccccc12 [CSFC-127, Fc1cccc(c1)n2ccc(n2)NC(=O)c4cc(nc3ccccc34)c5cccnc5]",100 µM,–,0.002,> 100 µM,–
"O=C(Nc1ccn(-c2ccccc2)n1)c1cc(-c2ccccc2F)nc2c(F)cccc12 [CSFC-102, Fc1ccccc1c3nc2c(cccc2F)c(c3)C(=O)Nc4ccn(n4)c5ccccc5]",0.3 µM,333,0.67,> 100 µM,–
"Cc1cccc2sc(NC(=O)c3cc(-c4cccn4C)nc4ccccc34)nc12 [CSFC-88, Cn1cccc1c3nc2ccccc2c(c3)C(=O)Nc4nc5c(C)cccc5s4]",0.2 µM,500,1.00,> 100 µM,–
"Cc1ccc2nc(NC(=O)c3ccnc4ccccc34)sc2c1 [CSFC-17, Cc1ccc2nc(sc2c1)NC(=O)c4ccnc3ccccc34]",100 µM,1,0.002,> 100 µM,–
"Cc1ccc(-c2cc(C(=O)Nc3ccn(-c4ccccc4)n3)c3ccccc3n2)cc1 [CSFC-112, Cc1ccc(cc1)c3nc2ccccc2c(c3)C(=O)Nc4ccn(n4)c5ccccc5]",0.1 µM,1000,2.00,> 100 µM,–
"COc1ccc(NC(=O)c2cc(-c3ccccc3)nc3ccccc23)cc1 [CSFC-139, COc1ccc(cc1)NC(=O)c1cc(nc2ccccc12)c1ccccc1]",> 100 µM,1,–,> 100 µM,0.0007
"Cc1csc(-c2cc(C(=O)Nc3ccn(-c4ccccc4)n3)c3ccccc3n2)c1 [CSFC-52, Cc1cc(sc1)c3nc2ccccc2c(c3)C(=O)Nc4ccn(n4)c5ccccc5]",1.2 µM,83,0.17,> 100 µM,–
"O=C(Nc1ccn(-c2ccccc2F)n1)c1cc(-c2ccccc2)nc2ccccc12 [CSFC-125, Fc1ccccc1n2ccc(n2)NC(=O)c4cc(nc3ccccc34)c5ccccc5]",1.6 µM,63,0.13,> 100 µM,–
"COc1ccc2nc(NC(=O)c3cc(-c4ccco4)nc4ccc(C)cc34)sc2c1 [CSFC-73, O=C(c2cc(nc1ccc(cc12)C)c3ccco3)Nc4nc5ccc(cc5s4)OC]",11.5 µM,9,0.0174,> 100 µM,–
"O=C(Nc1ccn(-c2ccccc2)n1)c1cc(-c2ccc(F)cc2)nc2ccc(F)cc12 [CSFC-123, Fc1ccc(cc1)c3nc2ccc(F)cc2c(c3)C(=O)Nc4ccn(n4)c5ccccc5]",0.3 µM,333,0.67,> 100 µM,–
"Cc1ccc(-n2ccc(NC(=O)c3cc(-c4cccnc4)nc4ccccc34)n2)cc1 [CSFC-140, Cc1ccc(cc1)n2ccc(n2)NC(=O)c4cc(nc3ccccc34)c5cccnc5]",0.02 µM,–,10.00,16 µM,–
"Cc1ccc2nc(-c3ccco3)cc(C(=O)Nc3nc4c(C)cccc4s3)c2c1 [CSFC-72, Cc1cc2c(cc1)nc(cc2C(=O)Nc3nc4c(C)cccc4s3)c5ccco5]",8.7 µM,11,0.023,> 100 µM,–
"Cc1cccc2sc(NC(=O)c3cc(-c4ccsc4)nc4ccccc34)nc12 [CSFC-78, Cc1cccc2sc(nc12)NC(=O)c4cc(nc3ccccc34)c5ccsc5]",0.1 µM,1000,2.00,> 100 µM,–
"O=C(Nc1nc2c(C(F)(F)F)cccc2s1)c1cc(-c2ccccc2)nc2ccccc12 [CSFC-148, FC(F)(F)c1cccc2sc(nc12)NC(=O)c1cc(nc2ccccc21)c1ccccc1]",0.3 µM,67,–,20 ± 1.6 µM,0.23
"CCOc1ccc2nc(NC(=O)c3cc(-c4ccco4)nc4ccccc34)sc2c1 [CSFC-57, CCOc1ccc2nc(sc2c1)NC(=O)c4cc(nc3ccccc34)c5ccco5]",0.5 µM,200,0.40,> 100 µM,–

Compound,EC50 (BVDV NADL virus),S.I. (BVDV NADL virus),fold increase (BVDV NADL virus; [2]),CC50 at 5 days [1],fold increase (BVDV NADL virus; [3])
"COc1cccc(NC(=O)c2cc(-c3ccccc3)nc3ccccc23)c1 [CSFC-138, COc1cccc(c1)NC(=O)c1cc(nc2ccccc12)c1ccccc1]",> 100 µM,1,–,> 100 µM,0.0007
"Cc1ccc2nc(NC(=O)c3cc(-c4ccccc4)nc4ccccc34)sc2c1 [CSFC-2, Cc1ccc2nc(NC(=O)c3cc(nc4ccccc43)c3ccccc3)sc2c1]",5.7 µM,18,–,> 100 µM,0.0123
"Cc1ccc(-c2cc(C(=O)Nc3nc4c(C)cccc4s3)c3ccccc3n2)o1 [CSFC-49, Cc1ccc(o1)c3nc2ccccc2c(c3)C(=O)Nc4nc5c(C)cccc5s4]",0.7 µM,143,0.29,> 100 µM,–
"Cc1ccc2nc(NC(=O)c3ccncc3)sc2c1 [CSFC-22, Cc1ccc2nc(NC(=O)c3ccncc3)sc2c1]",> 100 µM,1,–,> 100 µM,0.0007
"Cc1ccc(-c2cc(C(=O)Nc3ccn(-c4ccccc4)n3)c3ccccc3n2)o1 [CSFC-51, Cc1ccc(o1)c3nc2ccccc2c(c3)C(=O)Nc4ccn(n4)c5ccccc5]",15.2 µM,7,0.0132,> 100 µM,–
"COc1ccc2nc(NC(=O)c3cc(-c4ccc(F)cc4)nc4ccccc34)sc2c1 [CSFC-68, Fc1ccc(cc1)c3nc2ccccc2c(c3)C(=O)Nc4nc5ccc(cc5s4)OC]",0.2 µM,500,1.00,> 100 µM,–
"Cc1cccc2sc(NC(=O)c3cc(-c4cccs4)nc4ccccc34)nc12 [CSFC-46, Cc1cccc2sc(nc12)NC(=O)c4cc(nc3ccccc34)c5cccs5]",0.2 µM,500,1.00,> 100 µM,–
"O=C(Nc1nc2cc(F)ccc2s1)c1cc(-c2ccco2)nc2ccccc12 [CSFC-54, Fc1cc2nc(sc2cc1)NC(=O)c4cc(nc3ccccc34)c5ccco5]",100 µM,1,0.002,> 100 µM,–
"O=C(Nc1nc(-c2ccccc2)cs1)c1cc(-c2ccccc2)nc2ccccc12 [CSFC-60, O=C(Nc1nc(cs1)c2ccccc2)c4cc(nc3ccccc34)c5ccccc5]",0.7 µM,143,0.29,> 100 µM,–
"Cc1cccc2sc(NC(=O)c3cc(-c4ccncc4)nc4ccccc34)nc12 [CSFC-115, Cc1cccc2sc(nc12)NC(=O)c4cc(nc3ccccc34)c5ccncc5]",0.2 µM,500,1.00,> 100 µM,–
"COc1ccc2nc(NC(=O)c3cc(-c4ccco4)nc4ccc(Cl)cc34)sc2c1 [CSFC-81, Clc1cc2c(cc1)nc(cc2C(=O)Nc3nc4ccc(cc4s3)OC)c5ccco5]",24.5 µM,4,0.00816,> 100 µM,–
"Cc1noc(C)c1NC(=O)c1cc(-c2ccccc2)nc2ccccc12 [CSFC-36, O=C(Nc1c(C)onc1C)c3cc(nc2ccccc23)c4ccccc4]",47.2 µM,2,0.00424,> 100 µM,–
"Cc1csc(-c2cc(C(=O)Nc3nc4c(C)cccc4s3)c3ccccc3n2)c1 [CSFC-50, Cc1cc(sc1)c3nc2ccccc2c(c3)C(=O)Nc4nc5c(C)cccc5s4]",1.9 µM,53,0.11,> 100 µM,–
"O=C(Nc1ccn(-c2ccccc2Cl)n1)c1cc(-c2ccccc2)nc2ccccc12 [CSFC-131, Clc1ccccc1n2ccc(n2)NC(=O)c4cc(nc3ccccc34)c5ccccc5]",0.1 µM,1000,2.00,> 100 µM,–
"COc1ccc2nc(NC(=O)c3cc(-c4ccco4)nc4ccc(OC(F)(F)F)cc34)sc2c1 [CSFC-77, FC(F)(F)Oc1cc2c(cc1)nc(cc2C(=O)Nc3nc4ccc(cc4s3)OC)c5ccco5]",100 µM,1,0.002,> 100 µM,–
"Cc1cccc2sc(NC(=O)c3cc(-c4ccco4)nc4ccc(CO)cc34)nc12 [CSFC-74, OCc1cc2c(cc1)nc(cc2C(=O)Nc1nc2c(C)cccc2s1)c1ccco1]",100 µM,1,0.002,> 100 µM,–
"Cc1ccc(-c2cc(C(=O)Nc3nc4c(C)cccc4s3)c3ccccc3n2)cc1 [CSFC-120, Cc1ccc(cc1)c3nc2ccccc2c(c3)C(=O)Nc4nc5c(C)cccc5s4]",0.2 µM,500,1.00,> 100 µM,–
"Cc1cccc2sc(NC(=O)c3cc(-c4ccc(F)cc4)nc4ccccc34)nc12 [CSFC-66, Fc1ccc(cc1)c3nc2ccccc2c(c3)C(=O)Nc4nc5c(C)cccc5s4]",0.2 µM,500,1.00,> 100 µM,–
